Assay results published in US8192962B2, “Processes for detecting toxic substances” (Daikin Industries, Ltd., priority 2001, dated 2012).

System: Stress protein genes
Assay: DNA chip mRNA expression in yeast, stress protein genes (Table 6)
Type: cell-based, Saccharomyces cerevisiae S288C
Outline: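 Values are treated/untreated fluorescence ratios from a whole-genome yeast DNA chip hybridized over 12 hours at 65° C with Cy3- or Cy5-labelled cDNA from poly(A) mRNA. Log-phase S288C yeast in YPD at 25° C had received a single toxic chemical for two hours, dosed to slow growth without killing.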

Structure (SMILES): CCCCC[C@H](O)CC(=O)CCc1ccc(O)c(OC)c1 [(13), gingerol]
- The level of expressed mRNA in the presence of chemical substance/The level of expressed mRNA in the absence of chemical substance (yeast gene YAL015C): 1.2
- The level of expressed mRNA in the presence of chemical substance/The level of expressed mRNA in the absence of chemical substance (yeast gene YBL093C): 2.1
- The level of expressed mRNA in the presence of chemical substance/The level of expressed mRNA in the absence of chemical substance (yeast gene YBR044C): 1.2
- The level of expressed mRNA in the presence of chemical substance/The level of expressed mRNA in the absence of chemical substance (yeast gene YBR054W): 1.5
- The level of expressed mRNA in the presence of chemical substance/The level of expressed mRNA in the absence of chemical substance (yeast gene YBR067C): 0.9
- The level of expressed mRNA in the presence of chemical substance/The level of expressed mRNA in the absence of chemical substance (yeast gene YBR126C): 2.1
- The level of expressed mRNA in the presence of chemical substance/The level of expressed mRNA in the absence of chemical substance (yeast gene YCL035C): 2.8
- The level of expressed mRNA in the presence of chemical substance/The level of expressed mRNA in the absence of chemical substance (yeast gene YCR021C): 0.9
- The level of expressed mRNA in the presence of chemical substance/The level of expressed mRNA in the absence of chemical substance (yeast gene YCR083W): 1.8
- The level of expressed mRNA in the presence of chemical substance/The level of expressed mRNA in the absence of chemical substance (yeast gene YDL022W): 1.5
- The level of expressed mRNA in the presence of chemical substance/The level of expressed mRNA in the absence of chemical substance (yeast gene YDL025C): 1.2
- The level of expressed mRNA in the presence of chemical substance/The level of expressed mRNA in the absence of chemical substance (yeast gene YDR033W): 0.7
- The level of expressed mRNA in the presence of chemical substance/The level of expressed mRNA in the absence of chemical substance (yeast gene YDR077W): 1.0
- The level of expressed mRNA in the presence of chemical substance/The level of expressed mRNA in the absence of chemical substance (yeast gene YDR098C): 1.2
- The level of expressed mRNA in the presence of chemical substance/The level of expressed mRNA in the absence of chemical substance (yeast gene YDR155C): 3.3
- The level of expressed mRNA in the presence of chemical substance/The level of expressed mRNA in the absence of chemical substance (yeast gene YDR293C): 2.3
- The level of expressed mRNA in the presence of chemical substance/The level of expressed mRNA in the absence of chemical substance (yeast gene YDR513W): 1.8
- The level of expressed mRNA in the presence of chemical substance/The level of expressed mRNA in the absence of chemical substance (yeast gene YDR519W): 2.5
- The level of expressed mRNA in the presence of chemical substance/The level of expressed mRNA in the absence of chemical substance (yeast gene YEL039C): 0.5
- The level of expressed mRNA in the presence of chemical substance/The level of expressed mRNA in the absence of chemical substance (yeast gene YER042W): 1.4
- The level of expressed mRNA in the presence of chemical substance/The level of expressed mRNA in the absence of chemical substance (yeast gene YER057C): 1.0
- The level of expressed mRNA in the presence of chemical substance/The level of expressed mRNA in the absence of chemical substance (yeast gene YER125W): 1.9
- The level of expressed mRNA in the presence of chemical substance/The level of expressed mRNA in the absence of chemical substance (yeast gene YFL014W): 15.2
- The level of expressed mRNA in the presence of chemical substance/The level of expressed mRNA in the absence of chemical substance (yeast gene YFL016C): 2.8
- The level of expressed mRNA in the presence of chemical substance/The level of expressed mRNA in the absence of chemical substance (yeast gene YFL020C): 1.4
- The level of expressed mRNA in the presence of chemical substance/The level of expressed mRNA in the absence of chemical substance (yeast gene YFR052W): 3.8
- The level of expressed mRNA in the presence of chemical substance/The level of expressed mRNA in the absence of chemical substance (yeast gene YGL073W): 1.5
- The level of expressed mRNA in the presence of chemical substance/The level of expressed mRNA in the absence of chemical substance (yeast gene YGL115W): 0.7
- The level of expressed mRNA in the presence of chemical substance/The level of expressed mRNA in the absence of chemical substance (yeast gene YGR088W): 1.2
- The level of expressed mRNA in the presence of chemical substance/The level of expressed mRNA in the absence of chemical substance (yeast gene YHL028W): 2.1
- The level of expressed mRNA in the presence of chemical substance/The level of expressed mRNA in the absence of chemical substance (yeast gene YHL046C): 1.4
- The level of expressed mRNA in the presence of chemical substance/The level of expressed mRNA in the absence of chemical substance (yeast gene YHR030C): 1.0
- The level of expressed mRNA in the presence of chemical substance/The level of expressed mRNA in the absence of chemical substance (yeast gene YHR057C): 1.9
- The level of expressed mRNA in the presence of chemical substance/The level of expressed mRNA in the absence of chemical substance (yeast gene YHR104W): 1.2
- The level of expressed mRNA in the presence of chemical substance/The level of expressed mRNA in the absence of chemical substance (yeast gene YIL011W): 0.5
- The level of expressed mRNA in the presence of chemical substance/The level of expressed mRNA in the absence of chemical substance (yeast gene YIL033C): 2.5
- The level of expressed mRNA in the presence of chemical substance/The level of expressed mRNA in the absence of chemical substance (yeast gene YIR037W): 2.4
- The level of expressed mRNA in the presence of chemical substance/The level of expressed mRNA in the absence of chemical substance (yeast gene YIR038C): 2.5
- The level of expressed mRNA in the presence of chemical substance/The level of expressed mRNA in the absence of chemical substance (yeast gene YJL128C): 1.7
- The level of expressed mRNA in the presence of chemical substance/The level of expressed mRNA in the absence of chemical substance (yeast gene YJL159W): 1.7
- The level of expressed mRNA in the presence of chemical substance/The level of expressed mRNA in the absence of chemical substance (yeast gene YJL165C): 1.5
- The level of expressed mRNA in the presence of chemical substance/The level of expressed mRNA in the absence of chemical substance (yeast gene YJR045C): 2.3
- The level of expressed mRNA in the presence of chemical substance/The level of expressed mRNA in the absence of chemical substance (yeast gene YJR090C): 2.2
- The level of expressed mRNA in the presence of chemical substance/The level of expressed mRNA in the absence of chemical substance (yeast gene YKL161C): 1.3
- The level of expressed mRNA in the presence of chemical substance/The level of expressed mRNA in the absence of chemical substance (yeast gene YKL163W): 1.5
- The level of expressed mRNA in the presence of chemical substance/The level of expressed mRNA in the absence of chemical substance (yeast gene YKL164C): 0.9
- The level of expressed mRNA in the presence of chemical substance/The level of expressed mRNA in the absence of chemical substance (yeast gene YKL210W): 2.9
- The level of expressed mRNA in the presence of chemical substance/The level of expressed mRNA in the absence of chemical substance (yeast gene YKR053C): 0.7
- The level of expressed mRNA in the presence of chemical substance/The level of expressed mRNA in the absence of chemical substance (yeast gene YLL039C): 2.2
- The level of expressed mRNA in the presence of chemical substance/The level of expressed mRNA in the absence of chemical substance (yeast gene YLL060C): 1.8
- The level of expressed mRNA in the presence of chemical substance/The level of expressed mRNA in the absence of chemical substance (yeast gene YLR006C): 0.8
- The level of expressed mRNA in the presence of chemical substance/The level of expressed mRNA in the absence of chemical substance (yeast gene YLR109W): 3.2
- The level of expressed mRNA in the presence of chemical substance/The level of expressed mRNA in the absence of chemical substance (yeast gene YLR259C): 2.5
- The level of expressed mRNA in the presence of chemical substance/The level of expressed mRNA in the absence of chemical substance (yeast gene YML007W): 1.7
- The level of expressed mRNA in the presence of chemical substance/The level of expressed mRNA in the absence of chemical substance (yeast gene YMR021C): 1.4
- The level of expressed mRNA in the presence of chemical substance/The level of expressed mRNA in the absence of chemical substance (yeast gene YMR173W): 2.0
- The level of expressed mRNA in the presence of chemical substance/The level of expressed mRNA in the absence of chemical substance (yeast gene YMR186W): 2.4
- The level of expressed mRNA in the presence of chemical substance/The level of expressed mRNA in the absence of chemical substance (yeast gene YNL064C): 1.1
- The level of expressed mRNA in the presence of chemical substance/The level of expressed mRNA in the absence of chemical substance (yeast gene YNR076W): 0.9
- The level of expressed mRNA in the presence of chemical substance/The level of expressed mRNA in the absence of chemical substance (yeast gene YOL064C): 2.0
- The level of expressed mRNA in the presence of chemical substance/The level of expressed mRNA in the absence of chemical substance (yeast gene YOL161C): 1.2
- The level of expressed mRNA in the presence of chemical substance/The level of expressed mRNA in the absence of chemical substance (yeast gene YOR008C): 0.9
- The level of expressed mRNA in the presence of chemical substance/The level of expressed mRNA in the absence of chemical substance (yeast gene YOR010C): 0.5
- The level of expressed mRNA in the presence of chemical substance/The level of expressed mRNA in the absence of chemical substance (yeast gene YOR027W): 5.1
- The level of expressed mRNA in the presence of chemical substance/The level of expressed mRNA in the absence of chemical substance (yeast gene YOR208W): 1.5
- The level of expressed mRNA in the presence of chemical substance/The level of expressed mRNA in the absence of chemical substance (yeast gene YPL059W): 0.7
- The level of expressed mRNA in the presence of chemical substance/The level of expressed mRNA in the absence of chemical substance (yeast gene YPL106C): 3.1
- The level of expressed mRNA in the presence of chemical substance/The level of expressed mRNA in the absence of chemical substance (yeast gene YPL140C): 0.9
- The level of expressed mRNA in the presence of chemical substance/The level of expressed mRNA in the absence of chemical substance (yeast gene YPL194W): 1.4
- The level of expressed mRNA in the presence of chemical substance/The level of expressed mRNA in the absence of chemical substance (yeast gene YPL223C): 2.3
- The level of expressed mRNA in the presence of chemical substance/The level of expressed mRNA in the absence of chemical substance (yeast gene YPL240C): 2.9
- The level of expressed mRNA in the presence of chemical substance/The level of expressed mRNA in the absence of chemical substance (yeast gene YPR005C): 0.7
- The level of expressed mRNA in the presence of chemical substance/The level of expressed mRNA in the absence of chemical substance (yeast gene YPR026W): 2.3
